The values that follow are results of earlier work, collected in the CATMoS acute toxicity set (Mansouri et al. 2021).

Values joined by “and” are separate entries in the source; they are usually repeats but may differ in a detail not shown here. Identical values can stand only once.

This data set can be described thus: rat acute oral toxicity. To be noted: in vivo.
Take `CC(C)CCC(C)Nc1ccc(NC(C)CCC(C)C)cc1` (stereo unspecified): the LD50 was 750 mg/kg. `COC(OC)c1ccccc1[N+](=O)[O-]`: the LD50 is 3420 mg/kg. Turning to `COC(=O)C(Cl)Cc1ccc(Cl)cc1` (stereo unspecified), the LD50 was 1070 mg/kg.

As to `CCCCCOC(CBr)c1ccc(C(C)C)cc1` (stereo unspecified), the LD50 is 250 mg/kg. Take `O=NN1CCOC1`: the LD50 was 1500 mg/kg. Consider `ClC(Cl)(Cl)CC1CO1` (stereo unspecified), for which the LD50 was 1500 mg/kg. As to `O=C(NCCc1ccc(O)cc1)c1cccnc1`, the 50% lethal dose (LD50) is 8500 mg/kg. Regarding `OCCN1CCN(CCCN2c3ccccc3Sc3cc(Cl)cnc32)CC1`, the LD50 was 657 mg/kg. Consider `O=[N+]([O-])c1cc(Cl)c(Cl)c(Cl)c1[N+](=O)[O-]`, for which the LD50 is 425 mg/kg. Take `COC(=O)C[N+](=O)[O-]`: the LD50 was 3770 mg/kg.

In the case of `CCOC(=O)COP(=S)(OCC)OCC`, the LD50 was 1000 mg/kg.

Take `COc1cc(C(=O)c2ccc(Cl)cc2)cc(OC)c1OCCN1CCOCC1`: the LD50 was 1290 mg/kg.

With `Cc1ccc2[nH]c(C(F)(F)F)nc2c1[N+](=O)[O-]`, the LD50 is 7.75 mg/kg.

Turning to `COC(=O)[C@H]1[C@H]2C[C@@H]3c4[nH]c5cc(OC)ccc5c4CCN3C[C@H]2C[C@@H](OC(=O)C=Cc2cc(OC)c(OC)c(OC)c2)[C@@H]1OC`, the LD50 was 1000 mg/kg. As for `O=NN(CCCl)C(O)=NC1C[C@H]2CC[C@@H]1C2` (stereo partly specified), the LD50 was 83 mg/kg. As to `CCCC(C(=O)c1ccc(C)cc1)N1CCCC1` (stereo unspecified), the LD50 was 620 mg/kg. On to `CCOC(=O)Nc1ccc(NC(Cc2ccccc2)c2ccccc2)nc1N` (stereo unspecified), for which the LD50 is 163 mg/kg. Consider `CSC(=S)N(C)C`, for which the LD50 is 62 mg/kg. For the compound `FC(F)OC(Cl)C(F)(F)F` (stereo unspecified), the LD50 is 4770 mg/kg. In the case of `Oc1ccc(C2=CCCCC2)cc1`, the LD50 was 2830 mg/kg. Take `CCS(=O)CCOP(=O)(OC)OC=C(Cl)Cl` (stereo unspecified): the LD50 was 110 mg/kg.

Consider `CN=NNc1ccc(C)cc1`, for which the LD50 is 381 mg/kg.

On to `CC[N+](CC)(CC)CCO`, for which the LD50 is 1000 mg/kg.

With `FC(F)(F)c1ccccc1Br`, the LD50 was 2720 mg/kg.

`O=C1C(O)N=C(c2ccccc2F)c2cc(Cl)ccc2N1CCO` (stereo unspecified): the LD50 was 2550 mg/kg. For the compound `O=C(Cc1ccc(-c2ccccc2)cc1)OCCF`, the LD50 is 6 mg/kg.

For `CCC=CCC=CCC=CCC=CCC=CCC=CCCC(=O)O`, the LD50 was 10000 mg/kg.

Take `NC(=O)C1c2ccccc2C=Cc2ccccc21`: the LD50 is 1800 mg/kg. On to `CC(C(=O)O)c1ccc2c(c1)OCc1ccccc1C2=O` (stereo unspecified), for which the LD50 is 34 mg/kg. Consider `CCC(C)(C)N/C(N)=N/C#N`, for which the LD50 is 300 mg/kg. Turning to `COc1cccc(C=Nc2c(C)n(C)n(-c3ccccc3)c2=O)c1`, the LD50 is 5600 mg/kg. Take `CCN(CCC#N)c1ccc(N=Nc2nc3ccc(S(C)(=O)=O)cc3s2)c(C)c1`: the LD50 is 400 mg/kg. Take `OC(CCN1CCCCC1)(c1ccccc1)C1CCCCC1` (stereo unspecified): the LD50 is 1630 mg/kg. With `O=S(=O)(O)c1cc(Cl)ccc1C=Cc1ccc(-n2nc3ccc4c(S(=O)(=O)O)cccc4c3n2)cc1S(=O)(=O)O`, the LD50 was 19900 mg/kg.

As to `O=C(OCCN1CCOCC1)c1cccnc1Nc1cccc(C(F)(F)F)c1`, the LD50 is 4300 mg/kg.

Consider `CN(C)CCN(Cc1ccccc1)c1ccccn1`, for which the LD50 is 469 mg/kg.

Regarding `CCCCCCc1ccc(C(CBr)OCC(CC)CCCC)cc1` (stereo unspecified), the LD50 was 250 mg/kg. As to `CCc1c(C)[nH]c2c1C(=O)C(CN1CCOCC1)CC2` (stereo unspecified), the LD50 was 261 mg/kg.

With `CC(C)CC(O)CC(CC(C)C)CC(C)C` (stereo unspecified), the LD50 is 16300 mg/kg. In the case of `C1=CCC(C2OCC3(CC=CCC3)CO2)CC1` (stereo unspecified), the LD50 was 5190 mg/kg. Take `O=C(OC1CCC(N2CCCCC2)CC1)c1ccccc1` (stereo unspecified): the LD50 was 780 mg/kg. On to `Cc1nn(C)c(OCC(=O)c2ccccc2)c1C(=O)c1ccc(Cl)cc1Cl`, for which the LD50 was 1640 mg/kg. With `Cc1nc(NCc2ccccc2)c2cc[nH]c2n1`, the LD50 is 80 mg/kg. Regarding `COC(C)OC`, the LD50 is 6500 mg/kg. As to `CC1C(C)(C)C2=C(c3ncncc3CC2)C1(C)C` (stereo unspecified), the LD50 is 500 mg/kg. As for `O=P(CCn1c(Cc2ccccc2)nc2ccccc21)(OCCCl)OCCCl`, the LD50 was 6200 mg/kg. Turning to `CCCCOC(=O)CCC(=O)OCCCC`, the LD50 was 8000 mg/kg. For `OCCN1CCN(CCCN2c3ccccc3Sc3ccc(Cl)cc32)CC1`, the LD50 was 318 mg/kg and 210 mg/kg. As for `NCCN(CCN)CCN`, the LD50 was 246 mg/kg.

On to `COCC(=O)N(c1c(C)cccc1C)N1CCOC1=O`, for which the LD50 was 1860 mg/kg. As to `CCN(CC)c1ccccc1`, the LD50 was 782 mg/kg.

Consider `NC(=O)c1ccc2nc(C(F)(F)F)[nH]c2c1`, for which the LD50 was 31.6 mg/kg. As for `NC(N)=NCC=Cc1ccccc1`, the LD50 was 456 mg/kg. For `CN(Cc1ccc(Cl)cc1Cl)S(N)(=O)=O`, the LD50 is 2350 mg/kg. Take `ClCC[N+]1(CCCCCC[N+]2(CCCl)CCCO2)CCCO1` (stereo unspecified): the LD50 was 30 mg/kg.

For the compound `C[C@H]1c2cccc(O)c2C(=O)C2=C(O)[C@]3(O)C(=O)C(C(N)=O)=C(O)[C@@H](N(C)C)[C@@H]3[C@@H](O)[C@@H]21`, the LD50 is 1700 mg/kg.

`COP(=O)(OC)OC(=C(Br)Br)c1ccc(Cl)cc1Cl`: the LD50 was 180 mg/kg. On to `CN(N=O)C(N)=O`, for which the LD50 was 110 mg/kg. With `CC(=O)c1ccc(OCC(=O)NN)cc1`, the LD50 is 1820 mg/kg. Consider `CN(C)CCC(O)(c1ccccc1)c1ccccc1Cl` (stereo unspecified), for which the LD50 was 350 mg/kg. `O=C(O)c1ccccc1C(=O)c1ccccc1`: the LD50 is 4600 mg/kg.
